Laboratory results reported in ChEMBL document CHEMBL6114999, “Natural pyrrolo[1,2-a]quinazolinone derivatives: Design, synthesis, characterization, and bio-evaluation as novel antiviral agents” (Eur J Med Chem, 2025).
The source made the active and inactive calls. No cut-off for these calls is given here.

Columns and labels:
Enterovirus [1] = assay: Antiviral activity against EV71 infected in human RD cells assessed as protection from virus-induced cytopathogenicity incubated for 48 hrs by MTT assay; type: functional, organism-based; details: Enterovirus, 71, RD
Coxsackievirus B3 [2] = assay: Antiviral activity against CVB3 infected in HEp-2 cells assessed as inhibition of virus-induced cell death at 100 uM incubated for 48 hrs by MTT assay relative to control; type: functional; details: for inhibition at 100 µM: Enterovirus B, HEp-2, 48 h; for inhibition (INH): 48 h, 100 µM
Enterovirus [3] = assay: Antiviral activity against EV71 infected in human RD cells assessed as inhibition of virus-induced cell death at 50 uM incubated for 48 hrs by MTT assay relative to control; type: functional; details: Enterovirus, 71, RD
[4] = Cytotoxicity against human RD cells incubated for 48 hrs by MTT assay; type: toxicity, cell-based
[5] = Selectivity index, ratio of CC50 for cytotoxicity against human RD cells to EC50 for antiviral activity against EV71 infected in human RD cells; type: toxicity, cell-based; details: read-out: Ratio CC50/EC50
Coxsackievirus B3 [6] = assay: Antiviral activity against CVB3 infected in HEp-2 cells assessed as protection from virus-induced cytopathogenicity incubated for 48 hrs by MTT assay; type: functional, organism-based; details: Enterovirus B, HEp-2, 48 h
[7] = Cytotoxicity against human HEp-2 cells incubated for 48 hrs by MTT assay; type: toxicity, cell-based
Coxsackievirus B3 [8] = assay: Antiviral activity against CVB3 infected in HEp-2 cells assessed as inhibition of virus-induced cell death at 25 uM incubated for 48 hrs by MTT assay relative to control; type: functional; details: Enterovirus B
Enterovirus [9] = assay: Antiviral activity against EV71 infected in human RD cells assessed as inhibition of virus-induced cell death at 25 uM incubated for 48 hrs by MTT assay relative to control; type: functional; details: Enterovirus, 71, RD
Coxsackievirus B3 [10] = assay: Antiviral activity against CVB3 infected in HEp-2 cells assessed as inhibition of virus-induced cell death at 50 uM incubated for 48 hrs by MTT assay relative to control; type: functional; details: Enterovirus B
Enterovirus [11] = assay: Antiviral activity against EV71 infected in human RD cells assessed as inhibition of virus-induced cell death at 100 uM incubated for 48 hrs by MTT assay relative to control; type: functional, 71; details: for inhibition at 100 µM: Enterovirus, 71, RD
Enterovirus [12] = assay: Antiviral activity against EV71 infected in human RD cells assessed as inhibition of virus-induced cell death at 25 to 100 uM incubated for 48 hrs by MTT assay; type: functional, organism-based; details: 71, dose 25-100 µM
Coxsackievirus B3 [13] = assay: Antiviral activity against CVB3 infected in HEp-2 cells assessed as inhibition of virus-induced cell death at 25 to 100 uM incubated for 48 hrs by MTT assay; type: functional, organism-based; details: dose 25-100 µM
[14] = Selectivity index, ratio of CC50 for cytotoxicity against HEp-2 cells to EC50 for antiviral activity against CVB3 infected in HEp-2 cells; type: toxicity, cell-based; details: human, read-out: Ratio CC50/EC50

COC(=O)C(CCSC)NC(=O)C12CCC(=O)N1c1ccc(Cl)cc1C(=O)N2 (stereo not given)
EC50 (Enterovirus [1]): 53.4 µM
inhibition at 100 µM (Coxsackievirus B3 [2]): 58.8%
inhibition at 50 µM (Enterovirus [3]): 58.8%
CC50 at 48 h [4]: 235 µM
selectivity ratio [5]: 4.4
EC50 (Coxsackievirus B3 [6]): 60.1 µM
CC50 at 48 h [7]: 214 µM
inhibition at 25 µM (Coxsackievirus B3 [8]): 29.8%
inhibition at 25 µM (Enterovirus [9]): 50.3%
inhibition at 50 µM (Coxsackievirus B3 [10]): 49.9%
inhibition at 100 µM (Enterovirus [11]): 58.7%
inhibition (Enterovirus [12]): Active
antiviral activity call (active/inactive) (Coxsackievirus B3 [13]): Active

COC(=O)C(Cc1c[nH]c2ccccc12)NC(=O)C12CCC(=O)N1c1ccccc1C(=O)N2C (stereo not given)
EC50 (Enterovirus [1]): 28.7 µM
inhibition at 100 µM (Coxsackievirus B3 [2]): 63.7%
inhibition at 50 µM (Enterovirus [3]): 65.7%
CC50 at 48 h [4]: 282 µM
selectivity ratio [5]: 9.8
EC50 (Coxsackievirus B3 [6]): 66.2 µM
CC50 at 48 h [7]: 202 µM
inhibition at 25 µM (Coxsackievirus B3 [8]): 27.1%
inhibition at 25 µM (Enterovirus [9]): 55.7%
selectivity ratio [14]: 3.1
inhibition at 50 µM (Coxsackievirus B3 [10]): 40.3%
inhibition at 100 µM (Enterovirus [11]): 78%
inhibition (Enterovirus [12]): Active
antiviral activity call (active/inactive) (Coxsackievirus B3 [13]): Active

COc1cc(CNC(=O)C23CCC(=O)N2c2ccccc2C(=O)N3C)ccc1O (stereo not given)
CC50 at 48 h [4]: 243 µM
CC50 at 48 h [7]: 251 µM
antiviral activity call (active/inactive) (Coxsackievirus B3 [13]): Active

CC(NC(=O)C12CCC(=O)N1c1ccccc1C(=O)N2C)c1ccccc1 (stereo not given)
CC50 at 48 h [4]: 234 µM
CC50 at 48 h [7]: 223 µM

CC(NC(=O)C12CCC(=O)N1c1ccccc1C(=O)N2)c1ccccc1 (stereo not given)
EC50 (Enterovirus [1]): 32.4 µM
CC50 at 48 h [4]: 256 µM
selectivity ratio [5]: 7.9
CC50 at 48 h [7]: 205 µM
inhibition (Enterovirus [12]): Active

CN1C(=O)c2ccccc2N2C(=O)CCC12C(=O)NCCS(C)(=O)=O (stereo not given)
inhibition at 100 µM (Coxsackievirus B3 [2]): 55.2%
inhibition at 50 µM (Enterovirus [3]): 56.7%
CC50 at 48 h [4]: 251 µM
EC50 (Coxsackievirus B3 [6]): 64.5 µM
CC50 at 48 h [7]: 205 µM
inhibition at 25 µM (Coxsackievirus B3 [8]): 38.9%
inhibition at 25 µM (Enterovirus [9]): 33%
inhibition at 50 µM (Coxsackievirus B3 [10]): 46.6%
inhibition at 100 µM (Enterovirus [11]): 62.3%
antiviral activity call (active/inactive) (Coxsackievirus B3 [13]): Active

CS(=O)(=O)CCNC(=O)C12CCC(=O)N1c1ccc(Cl)cc1C(=O)N2 (stereo not given)
inhibition at 100 µM (Coxsackievirus B3 [2]): 28.5%
inhibition at 50 µM (Enterovirus [3]): 28%
CC50 at 48 h [4]: 243 µM
CC50 at 48 h [7]: 202 µM
inhibition at 25 µM (Coxsackievirus B3 [8]): 12.2%
inhibition at 25 µM (Enterovirus [9]): 33.8%
inhibition at 50 µM (Coxsackievirus B3 [10]): 24.3%
inhibition at 100 µM (Enterovirus [11]): 22.8%

COc1cc(CNC(=O)C23CCC(=O)N2c2ccccc2C(=O)N3)ccc1O (stereo not given)
inhibition (INH) (Coxsackievirus B3 [2]): 82.4%
inhibition at 100 µM (Coxsackievirus B3 [2]): 82.4%
inhibition at 50 µM (Enterovirus [3]): 85.9%
CC50 at 48 h [4]: 264 µM
EC50 (Coxsackievirus B3 [6]): 35.8 µM
CC50 at 48 h [7]: 238 µM
inhibition at 25 µM (Coxsackievirus B3 [8]): 42.2%
inhibition at 25 µM (Enterovirus [9]): 64.3%
selectivity ratio [14]: 6.6
inhibition at 50 µM (Coxsackievirus B3 [10]): 56.6%
Imax (Enterovirus [11]): 91.33%
inhibition at 100 µM (Enterovirus [11]): 91.3%
antiviral activity call (active/inactive) (Coxsackievirus B3 [13]): Active

CSCCNC(=O)C12CCC(=O)N1c1ccccc1C(=O)N2C (stereo not given)
inhibition at 100 µM (Coxsackievirus B3 [2]): 32.1%
inhibition at 50 µM (Enterovirus [3]): 13.7%
CC50 at 48 h [4]: 278 µM
CC50 at 48 h [7]: 238 µM
inhibition at 25 µM (Coxsackievirus B3 [8]): 20.7%
inhibition at 25 µM (Enterovirus [9]): 6.6%
inhibition at 50 µM (Coxsackievirus B3 [10]): 24.4%
inhibition at 100 µM (Enterovirus [11]): 7.9%

CSCCNC(=O)C12CCC(=O)N1c1ccc(Cl)cc1C(=O)N2 (stereo not given)
EC50 (Enterovirus [1]): 44.5 µM
inhibition at 100 µM (Coxsackievirus B3 [2]): 46.7%
inhibition at 50 µM (Enterovirus [3]): 28.8%
CC50 at 48 h [4]: 269 µM
selectivity ratio [5]: 6
CC50 at 48 h [7]: 315 µM
inhibition at 25 µM (Coxsackievirus B3 [8]): 20.3%
inhibition at 25 µM (Enterovirus [9]): 34.9%
inhibition at 50 µM (Coxsackievirus B3 [10]): 30.1%
inhibition at 100 µM (Enterovirus [11]): 26.2%
inhibition (Enterovirus [12]): Active

O=C1NC2(C(=O)NCCc3c[nH]c4ccccc34)CCC(=O)N2c2ccc(Cl)cc21 (stereo not given)
EC50 (Enterovirus [1]): 16.8 µM
inhibition at 100 µM (Coxsackievirus B3 [2]): 65.7%
inhibition at 50 µM (Enterovirus [3]): 66.8%
CC50 at 48 h [4]: 140 µM
selectivity ratio [5]: 8.3
EC50 (Coxsackievirus B3 [6]): 33.5 µM
CC50 at 48 h [7]: 180 µM
inhibition at 25 µM (Coxsackievirus B3 [8]): 38.5%
inhibition at 25 µM (Enterovirus [9]): 57.8%
selectivity ratio [14]: 5.4
inhibition at 50 µM (Coxsackievirus B3 [10]): 77.3%
inhibition at 100 µM (Enterovirus [11]): 88.4%
inhibition (Enterovirus [12]): Active
antiviral activity call (active/inactive) (Coxsackievirus B3 [13]): Active

COc1cc(CNC(=O)C23CCC(=O)N2c2ccc(Cl)cc2C(=O)N3)ccc1O (stereo not given)
EC50 (Enterovirus [1]): 27.2 µM
inhibition (INH) (Coxsackievirus B3 [2]): 92.3%
inhibition at 100 µM (Coxsackievirus B3 [2]): 87.3%
inhibition at 50 µM (Enterovirus [3]): 81.3%
CC50 at 48 h [4]: 160 µM
selectivity ratio [5]: 5.9
EC50 (Coxsackievirus B3 [6]): 17.4 µM
CC50 at 48 h [7]: 188 µM
inhibition at 25 µM (Coxsackievirus B3 [8]): 48.9%
inhibition at 25 µM (Enterovirus [9]): 67.5%
selectivity ratio [14]: 10.8
inhibition at 50 µM (Coxsackievirus B3 [10]): 30.7%
Imax (Enterovirus [11]): 97.48%
inhibition at 100 µM (Enterovirus [11]): 97.5%
inhibition (Enterovirus [12]): Active
antiviral activity call (active/inactive) (Coxsackievirus B3 [13]): Active

CSCCNC(=O)C12CCC(=O)N1c1ccccc1C(=O)N2 (stereo not given)
inhibition at 100 µM (Coxsackievirus B3 [2]): 26.9%
inhibition at 50 µM (Enterovirus [3]): 7.3%
CC50 at 48 h [4]: 288 µM
CC50 at 48 h [7]: 210 µM
inhibition at 25 µM (Coxsackievirus B3 [8]): 7.9%
inhibition at 25 µM (Enterovirus [9]): 5.7%
inhibition at 50 µM (Coxsackievirus B3 [10]): 12.3%
inhibition at 100 µM (Enterovirus [11]): 3.9%

CC(NC(=O)C12CCC(=O)N1c1ccc(Cl)cc1C(=O)N2)c1ccccc1 (stereo not given)
EC50 (Enterovirus [1]): 29.4 µM
inhibition at 100 µM (Coxsackievirus B3 [2]): 47.9%
inhibition at 50 µM (Enterovirus [3]): 53.3%
CC50 at 48 h [4]: 270 µM
selectivity ratio [5]: 9.2
EC50 (Coxsackievirus B3 [6]): 103 µM
CC50 at 48 h [7]: 239 µM
inhibition at 25 µM (Coxsackievirus B3 [8]): 16%
inhibition at 25 µM (Enterovirus [9]): 44.4%
selectivity ratio [14]: 2.3
inhibition at 50 µM (Coxsackievirus B3 [10]): 31.5%
inhibition at 100 µM (Enterovirus [11]): 71.7%
inhibition (Enterovirus [12]): Active
antiviral activity call (active/inactive) (Coxsackievirus B3 [13]): Active

CS(=O)(=O)CCNC(=O)C12CCC(=O)N1c1ccccc1C(=O)N2 (stereo not given)
inhibition at 100 µM (Coxsackievirus B3 [2]): 11.9%
inhibition at 50 µM (Enterovirus [3]): 3.2%
CC50 at 48 h [4]: 262 µM
CC50 at 48 h [7]: 176 µM
inhibition at 25 µM (Coxsackievirus B3 [8]): 3.6%
inhibition at 25 µM (Enterovirus [9]): 2%
selectivity ratio [14]: 3.2
inhibition at 50 µM (Coxsackievirus B3 [10]): 6.5%
inhibition at 100 µM (Enterovirus [11]): 1.6%

COC(=O)C(CCSC)NC(=O)C12CCC(=O)N1c1ccccc1C(=O)N2 (stereo not given)
inhibition at 100 µM (Coxsackievirus B3 [2]): 27.9%
inhibition at 50 µM (Enterovirus [3]): 5%
CC50 at 48 h [4]: 245 µM
CC50 at 48 h [7]: 212 µM
inhibition at 25 µM (Coxsackievirus B3 [8]): 13.3%
inhibition at 25 µM (Enterovirus [9]): 6.1%
inhibition at 50 µM (Coxsackievirus B3 [10]): 21.7%
inhibition at 100 µM (Enterovirus [11]): 4.8%

COC(=O)C(CCSC)NC(=O)C12CCC(=O)N1c1ccccc1C(=O)N2C (stereo not given)
inhibition at 100 µM (Coxsackievirus B3 [2]): 27.3%
inhibition at 50 µM (Enterovirus [3]): 6.2%
CC50 at 48 h [4]: 252 µM
CC50 at 48 h [7]: 200 µM
inhibition at 25 µM (Coxsackievirus B3 [8]): 20.8%
inhibition at 25 µM (Enterovirus [9]): 3.2%
selectivity ratio [14]: 3.6
inhibition at 50 µM (Coxsackievirus B3 [10]): 20.2%
inhibition at 100 µM (Enterovirus [11]): 1.3%
